In US11161819B2, “Substituted tetrahydroisoquinoline compounds useful as GPR120 agonists” (Merck Sharp & Dohme Corp., priority 2016, dated 2021):

target: T1, human GPR120 (Homo sapiens, UniProt Q5NUL3); assay: Human GPR120 IP1 Assay (inositol phosphate turnover, CisBio IP-One kit); assay type: cell-based; details: IP1 accumulation in CHO-K1 cells stably expressing the short form of human GPR120; 60 min compound incubation; 4-parameter fit; read-out: hGPR120 EC50
T1 construct: expressed in transfected cells
T1 sequence (Q5NUL3 1-361): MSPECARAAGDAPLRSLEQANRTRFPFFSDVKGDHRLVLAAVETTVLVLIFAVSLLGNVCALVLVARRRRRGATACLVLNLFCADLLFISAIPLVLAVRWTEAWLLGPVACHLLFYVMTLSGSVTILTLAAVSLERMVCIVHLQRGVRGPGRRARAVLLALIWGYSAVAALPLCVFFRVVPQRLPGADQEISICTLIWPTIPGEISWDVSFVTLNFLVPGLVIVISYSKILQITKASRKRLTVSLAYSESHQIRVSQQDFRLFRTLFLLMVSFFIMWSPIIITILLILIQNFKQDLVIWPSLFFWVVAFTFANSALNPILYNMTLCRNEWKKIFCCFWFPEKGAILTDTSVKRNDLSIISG
Description: Human GPR120 IP1 Assay Principle
The binding of small molecule agonists to the G-protein-coupled receptor GPR120 activates phospholipase C, and leads to the generation of inositol 1,4,5-trisphosphate (InsP3 or IP3). IP3 is subsequently de-phosphorylated to IP1, which accumulates in cells and is stable in the presence of lithium chloride.
In the present method, agonist-induced activation of the human GPR120 receptor was monitored by measuring the accumulation of IP1 in CHO-K1 cells that were stably expressing the short form of human GPR120 (Accession #NM_001195755). Following agonist addition, GPR120 activation and subsequent accumulation of IP1 was measured using a homogeneous Time Resolved Fluorescence-based ELISA commercially available from CisBio (IP-one ELISA Kit). The IP-One ELISA was a competitive immunoassay which uses IP1 labeled with […] and a terbium cryptate-labeled anti-IP1 monoclonal antibody. […] The signal loss was then back calculated to IP1 concentration using an IP1 standard curve. Determination of IP1 concentration was a direct measure of GPR120 activation and was used to determine compound potency (EC50).
Generation of GPR120-Expressing Cells:
Human GPR120 stable cell-lines were generated in CHO cells. The expression plasmids were transfected using lipofectamine (Life Technologies) following manufacturer's instructions. Stable cell-lines were generated following drug selection and single cell cloning.
Inositol Phosphate Turnover (IP1) Assay:
The assay was performed in 384-well format. CHO cells stably expressing human GPR120 were plated at […] per well in growth medium (DMEM/F12, 10% fetal calf serum). Cell plates were then incubated 16 hours at 37 degrees in a 5% CO2 incubator. Measurement of Inositol Phosphate Turnover (IP1) was performed using the CisBio IP-One kit (Part number 62IPAPEB). After the 16 hour incubation, the growth media was removed by centrifugation using the BlueWasher (AusWasher GUI Ver. v1.0.1.8) Protocol #21-“Light Dry” and 10 ul of stimulation buffer (prepared as described in the kit) was added to each well. In a separate plate, compounds were diluted in DMSO (200-fold over the final concentration in the assay well) and 50 nl was acoustically transferred to the appropriate well in the assay cell plate. The plates were then incubated for 60 minutes at 37 degrees in a 5% CO2 incubator. 10 ul of detection buffer (also prepared as described in the IP-One kit) was added to each well and the plates were incubated at room temperature for 60 minutes in the dark. The plates were then read in a Perkin Elmer EnVision or equivalent reader able to measure FRET. Fluorescent ratio of emission at 665 and 620 nm was then converted to the IP1 concentration by back calculating from an IP1 standard curve prepared at the time of the assay. The data was normalized to % activity using a reference compound, and the EC50 values were determined using a standard 4-parameter fit.

Going from “3-{2-[2-cyano-5-(cyclobutyloxy) phenyl]-1,2,3,4-tetrahydroiso- quinolin-6-yl}propanoic acid [Example 46]” to `CC(CC(=O)O)c1ccc2c(c1)CCN(c1cc(OC(F)(F)F)ccc1F)C2` (single isomer, unassigned) [Example 8, 3-(2-(2-fluoro-5-(trifluoromethoxy)phenyl)-1,2,3,4-tetrahydro-isoquinolin-6-yl)-butanoic acid], the EC50 falls from 5390 nM to 414 nM (13-fold).

Molecule `CC(Cc1ccc2c(c1F)CCN(c1cc(OC(F)(F)F)cc(Cl)c1F)C2)C(=O)O` (single isomer, unassigned) [Example 68, 3-{2-[3-chloro-2-fluoro-5-(trifluoromethoxy)phenyl]-5-fluoro-1,2,3,4-tetrahydroisoquinolin-6-yl}-2-methyl-propanoic acid] has an EC50 of 58 nM.
`CC(Cc1ccc2c(c1F)CCN(c1cc(OC(F)(F)F)cc(Cl)c1F)C2)C(=O)O` (single isomer, unassigned) [Example 69, 3-{2-[3-chloro-2-fluoro-5-(trifluoromethoxy)phenyl]-5-fluoro-1,2,3,4-tetrahydroisoquinolin-6-yl}-2-methyl-propanoic acid] and `Cc1ccc(-n2nc(C)c(C#N)c2N2CCc3cc(C(C)CCCC(=O)O)ccc3C2)cc1` (single isomer, unassigned) [Example 140, 5-{2-[4-cyano-3-methyl-1-(4-methylphenyl)-1H-pyrazol-5-yl]-1,2,3,4-tetrahydroisoquinolin-6-yl} hexanoic acid] are within 1.5-fold of each other in EC50: 231 nM for the first, 209 nM for the second.

Compared with `Cc1ccc(-n2nc(C)c(C#N)c2N2CCc3cc(C(C)CCCC(=O)O)ccc3C2)cc1` (single isomer, unassigned) [Example 142, 5-{2-[4-cyano-3-methyl-1-(4-methylphenyl)-1H-pyrazol-5-yl]-1,2,3,4-tetra-hydroisoquinolin-6-yl}hexanoic acid], `O=C(O)CCc1ccc2c(c1)CCN(c1cc(Oc3ccccn3)cc(C(F)F)c1F)C2` [Example 2, 3-(2-(3-(difluoromethyl)-2-fluoro-5-(pyridin-2-yloxy)phenyl)-1,2,3,4-tetrahydro-isoquinolin-6-yl)propanoic acid] is 18-fold lower in EC50: 312 nM for the first, 17 nM for the second. The second is the more potent here.

First: O=C(O)CCc1ccc2c(c1)CCN(c1nc(OC3CCC3)ccc1F)C2 [Example 5, 3-(2-(6-cyclobutoxy-3-fluoropyridin-2-yl)-1,2,3,4-tetrahydro-isoquinolin-6-yl)-propanoic acid]
Second: CC1c2ccc(CCC(=O)O)cc2CCN1c1cc(OC2CCC2)ccc1F (stereo not drawn) [Example 6, 3-(2-(5-cyclobutoxy-2-fluorophenyl)-1-methyl-1,2,3,4-tetrahydroisoquinolin-6-yl)-propanoic acid]
The EC50 of the first is 6.4-fold lower: 65 nM for the first, 417 nM for the second.

First: CC(CC(=O)O)c1ccc2c(c1)CCN(c1cc(OC(F)(F)F)ccc1F)C2 (stereo not drawn) [Example 7, 3-(2-(2-fluoro-5-(trifluoromethoxy)phenyl)-1,2,3,4-tetrahydroisoquinolin-6-yl)butanoic acid]
Second: Cc1cnc(Oc2cc(Cl)c(F)c(N3CCc4cc(CCC(=O)O)ccc4C3)c2)s1 [Example 9]
The EC50 of the first is 27-fold higher: 533 nM for the first, 20 nM for the second. The second is the more potent here.

`O=C(O)CCc1ccc2c(c1)CCN(c1cc(OC3CCC3)cc(C(F)F)c1F)C2` [Example 10, 3-{2-[5-(cyclobutyloxy)-3-(difluoromethyl)-2-fluorophenyl]-1,2-3,4-tetrahydroisoquinolin-6-yl}-propanoic acid] and `O=C(O)CCc1ccc2c(c1)CCN(c1cc(OC3CCC3)cc(F)c1F)C2` [Example 11, 3-{2-[5-(cyclobutyloxy)-2,3-difluorophenyl]-1,2,3,4-tetrahydro-isoquinolin-6-yl}propanoic acid] are within 1.5-fold of each other in EC50: 14 nM for the first, 15 nM for the second.

`N#Cc1cc(OC2CCC2)cc(N2CCc3cc(CCC(=O)O)ccc3C2)c1F` [Example 12, 3-{2-[3-cyano-5-(cyclobutyloxy)-2-fluorophenyl]-1,2,3,4-tetra-hydroisoquinolin-6-yl}propanoic acid] and `COc1cc(OC(F)(F)F)cc(N2CCc3cc(CCC(=O)O)ccc3C2)c1F` [Example 13, 3-{2-[2-fluoro-3-methoxy-5-(trifluoromethoxy)phenyl]-1,2,3,4-tetrahydroisoquinolin-6-yl}-propanoic acid] are within 1.5-fold of each other in EC50: 24 nM for the first, 18 nM for the second.

`Cc1cnc(Oc2cc(C(F)F)c(F)c(N3CCc4cc(CCC(=O)O)ccc4C3)c2)s1` [Example 14, 3-(2-{3-(difluoromethyl)-2-fluoro-5-[(5-methyl-1,3-thiazol-2-yl)oxy]phenyl}-1,2,3,4-tetrahydro-isoquinolin-6-yl)propanoic acid] and `O=C(O)CCc1ccc2c(c1)CCN(c1cc(OC(F)(F)F)cc(Cl)c1F)C2` [Example 15, 3-{2-[3-chloro-2-fluoro-5-(trifluoromethoxy)phenyl]-1,2,3,4-tetrahydroisoquinolin-6-yl}-propanoic acid] are within 1.5-fold of each other in EC50: 20 nM for the first, 22 nM for the second.

`Cc1ccc(Oc2cc(C(F)F)c(F)c(N3CCc4cc(CCC(=O)O)ccc4C3)c2)nc1` [Example 16, 3-(2-{3-(difluoromethyl)-2-fluoro-5-[(5-methylpyridin-2-yl)oxy]phenyl}-1,2,3,4-tetrahydroiso-quinolin-6-yl)propanoic acid] and `COc1cc(Oc2ncc(C)s2)cc(N2CCc3cc(CCC(=O)O)ccc3C2)c1F` [Example 17, 3-(2-{2-fluoro-3-methoxy-5-[(5-methyl-1,3-thiazol-2-yl)oxy]phenyl}-1,2,3,4-tetrahydroiso-quinolin-6-yl)propanoic acid] are within 1.5-fold of each other in EC50: 22 nM for the first, 23 nM for the second.

`COc1cc(OC2CCC2)cc(N2CCc3cc(CCC(=O)O)ccc3C2)c1F` [Example 18, 3-{2-[5-(cyclobutyloxy)-2-fluoro-3-methoxyphenyl]-1,2,3,4-tetra-hydroisoquinolin-6-yl}propanoic acid] and `O=C(O)CCc1ccc2c(c1)CCN(c1cc(OC3CCC3)ccc1F)C2` [Example 19, 3-{2-[5-(cyclobutyloxy)-2-fluorophenyl]-1,2,3,4-tetrahydroiso-quinolin-6-yl}propanoic acid] are within 1.5-fold of each other in EC50: 24 nM for the first, 27 nM for the second.

Going from `CO[C@H]1C[C@H](Oc2cc(F)c(F)c(N3CCc4cc(CCC(=O)O)ccc4C3)c2)C1` [Example 20, 3-(2-{2,3-difluoro-5-[(trans-3-methoxycyclobutyl)oxy]phenyl}-1,2,3,4-tetrahydroisoquinolin-6-yl)propanoic acid] to `COc1cc(F)c(N2CCc3cc(CCC(=O)O)ccc3C2)cc1Oc1ncc(C)s1` [Example 21, 3-(2-{2-fluoro-4-methoxy-5-[(5-methyl-1,3-thiazol-2-yl)oxy]phenyl}-1,2,3,4-tetrahydroiso-quinolin-6-yl)propanoic acid], the EC50 rises from 29 nM to 51 nM (1.8-fold).

`Cc1ccc(-n2nc(C)c(Cl)c2N2CCc3cc(CCC(=O)O)ccc3C2)cc1` [Example 22, 3-{2-[4-chloro-3-methyl-1-(4-methylphenyl)-1H-pyrazol-5-yl]-1,2,3,4-tetrahydroisoquinolin-6-yl} propanoic acid] and `O=C(O)CCc1ccc2c(c1F)CCN(c1cc(CC3CCC3)ccc1F)C2` [Example 23, 3-{2-[5-(cyclobutylmethyl)-2-fluorophenyl]-5-fluoro-1,2,3,4-tetrahydroisoquinolin-6-yl}propanoic acid] are within 1.5-fold of each other in EC50: 56 nM for the first, 60 nM for the second.

First: COc1cc(Cl)c(N2CCc3cc(CCC(=O)O)ccc3C2)cc1OC1CCC1 [Example 24, 3-{2-[2-chloro-5-(cyclobutyloxy)-4-methoxyphenyl]-1,2,3,4-tetrahydroisoquinolin-6-yl}propanoic acid]
Second: O=C(O)CCc1ccc2c(c1)CCN(c1cc(SC3CCC3)ncc1F)C2 [Example 26, 3-{2-[2-(cyclobutylsulfanyl)-5-fluoropyridin-4-yl]-1,2,3,4-tetrahydro-isoquinolin-6-yl}propanoic acid]
The EC50 of the first is 1.6-fold lower: 61 nM for the first, 97 nM for the second.
